PubChem BioAssay (NCI)
Several values for one entry are separate records, joined by “and”; a condition that tells them apart may be missing. Equal entries are not always repeated.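 In this assay, cells in 96-well plates receive the compound at five concentrations for 48 hours. Endpoints are linearly interpolated between the surrounding concentrations. GI50 = concentration required for 50% inhibition of growth. TGI denotes the concentration required for complete inhibition of growth.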

Key:
Assay in all cases: growth of human tumour cells (NCI), 48 h
MDA-MB-231 breast = system: MDA-MB-231 breast
MDA-MB-435 = system: MDA-MB-435
PC-3 prostate = system: PC-3 prostate
NCI/ADR-RES ovarian = system: NCI/ADR-RES ovarian
MDA-N = system: MDA-N
DMS 273 small cell lung = system: DMS 273 small cell lung
DLD-1 colon = system: DLD-1 colon
HOP-18 NSCLC = system: HOP-18 NSCLC

Structure (SMILES) | GI50 (MDA-MB-231 breast) [µM] | TGI (MDA-MB-231 breast) [µM] | GI50 (MDA-MB-435) [nM] | TGI (MDA-MB-435) | GI50 (PC-3 prostate) [nM] | TGI (PC-3 prostate) [µM] | GI50 (NCI/ADR-RES ovarian) [µM] | TGI (NCI/ADR-RES ovarian) | GI50 (MDA-N) [nM] | TGI (MDA-N) | TGI (DMS 273 small cell lung) [µM] | TGI (DLD-1 colon) [µM] | TGI (HOP-18 NSCLC) [µM] | GI50 (DLD-1 colon) [µM] | GI50 (HOP-18 NSCLC) [µM]
COc1ccc(Nc2ncc(Br)c(NCCCNC(=O)C3CCC3)n2)cc1 | 5.06 | 60.3 | 36100 | > 100 µM | 14500 | > 100 | 19 | 80.5 µM |  |  |  |  |  |  | 
COc1cc(CCN)c2c(c1OC)SSSSS2 | 1.49 | 2.92 | 1630 | 3.32 µM | 1590 | 2.93 | 1.63 | 3.73 µM | 706 | 2.21 µM |  |  |  |  | 
CCCn1c(SC)nc(COC(=O)NC)c1COC(=O)NC |  | > 100 |  | > 100 µM |  | > 100 |  | > 100 µM |  | > 100 µM |  |  |  |  | 
CCC(=O)O[C@H]1CC[C@H]2[C@@H]3CC[C@H]4CC(=O)[C@H](C)C[C@]4(C)[C@H]3CC[C@]12C | > 90.8 | > 100 | 48700 | > 100 µM | 10500 | > 100 | 38.3 | > 100 µM |  |  |  |  |  |  | 
O=[N+]([O-])c1ccc(S(=O)Cc2ccccc2)c([N+](=O)[O-])c1 (stereo not drawn) | 2.82 | 8.92 | 2510 | 7.69 µM | 14600 | 30.9 | 13.5 | 35.4 µM |  |  |  |  |  |  | 
Oc1ccc(C(c2ccc(O)cc2)c2ccc(Cl)cn2)cc1 | 28 | > 100 | 23300 | > 86.2 µM | 194 | 0.708 | 0.0512 | 0.284 µM |  |  |  |  |  |  | 
COc1ccc(C2SCC(=O)N2NC(=O)C(O)c2ccccc2)cc1OC (stereo not drawn) | > 100 | > 100 | > 100000 | > 100 µM | > 100000 | > 100 | > 100 | > 100 µM |  |  |  |  |  |  | 
CC1CC#CCOC(=O)CCCC1=O (stereo not drawn) |  |  |  |  |  |  |  |  |  |  | > 100 | > 100 | > 100 |  | 
O=C(c1ccccc1)C1CCCCN1C(=O)c1ccccc1 (stereo not drawn) |  |  |  |  |  |  |  |  |  |  | > 100 | > 100 | > 100 |  | 
COc1ccc(-c2oc3c(OC)c(OC)c(OC)c(O)c3c(=O)c2OC)cc1OC |  | > 100 |  | 32.9 µM |  | > 93 |  | > 72 µM |  | 30 µM |  |  |  |  | 
C=CCN(/C=C1/C(=O)O[C@H](COC)[C@@]2(C)C1=C(O)C(=O)C1=C2[C@H](OC(C)=O)C[C@]2(C)C(=O)CC[C@@H]12)CC=C | 6.23 | > 10 | 2680 | > 10 µM | 177 | > 10 | > 4.75 | > 10 µM |  |  |  |  |  |  | 
C=C1SC(=Nc2c(C)cc(C)cc2C)N(C(=O)c2sc3ccccc3c2Cl)C12CCCCC2 | > 100 | > 100 | > 100000 | > 100 µM | 22300 | > 100 | > 100 | > 100 µM |  |  |  |  |  |  | 
CC1(C)CC[C@H](Nc2ncc(C(F)(F)F)c(-c3c[nH]c4c(P(C)(C)=O)c(C#N)ccc34)n2)CN1 | 0.4 | 9.08 | 38 | 12 µM | 39.6 | 43.3 | 3.18 | 27.6 µM |  |  |  |  |  |  | 
CC1CCP(=O)(c2ccccc2)c2ccccc21 (stereo not drawn) |  |  |  |  |  |  |  |  |  |  | 90.2 | > 100 | > 100 |  | 
Cc1ccc(S(=O)(=O)NCCNC2=CC(=O)c3nc4ccccc4c4ccnc2c34)cc1 | 24 | 66.1 | 17700 | 41.2 µM | 16000 | 49.8 | 17 | 55.4 µM |  |  |  |  |  |  | 
O=C(/C=C/C12c3ccccc3C(c3ccccc31)C1C(=O)N(c3ccccc3)C(=O)C12)c1ccccc1 (stereo not drawn) | 2.23 | 6.77 | 2560 | > 100 µM | 2070 | > 100 | 2.23 | > 100 µM |  |  |  |  |  |  | 
Cc1ccc(-c2cc(-c3ccco3)c(C#N)c(=O)[nH]2)cc1 |  |  |  |  |  |  |  |  |  |  | > 100 | > 100 | > 100 |  | 
O=C1c2ccc([N+](=O)[O-])cc2-c2c1c1ccccc1c(=O)n2CCCNCCCNCCCn1c2c(c3ccc([N+](=O)[O-])cc3c1=O)C(=O)c1ccccc1-2 | 0.407 | 2.85 | 3880 | > 46.6 µM | 3310 | 15.9 | 7.51 | 63.5 µM |  |  |  |  |  |  | 
CS(=O)(=O)OCCN1CCN(C(=O)c2cccc3c(Nc4ccc(S(=O)(=O)N=C(N)N)cc4)c4ccccc4nc23)CC1 |  |  |  |  |  |  |  |  |  |  | > 100 | > 100 |  |  | 
NC1CCCCC1.[O]=[Ge].[O]=[Ge].[O]=[Ge][OH].[O]=[Ge][OH] |  |  |  |  |  |  |  |  |  |  | > 100 | > 100 | > 100 |  | 
COc1cc(/C=C\c2ccc(C)cc2)cc(OC)c1OC |  |  |  | 0.0672 µM | 17.3 | > 100 |  | 0.111 µM and 0.158 µM |  | 0.00521 µM | 17.4 | > 100 |  |  | 
O=C(/C=C/c1ccccc1)CC1OC(=O)c2ccccc21 (stereo not drawn) |  |  |  |  |  |  |  |  |  |  | > 100 | > 100 | 78.4 |  | 
C1C[OH+]CC[OH+]CCNCC[OH+]CC[OH+]CCN1.[Cl-].[Pt+4] |  |  |  |  |  |  |  |  |  |  |  | > 100 | > 100 | > 100 | > 100
O=Nc1c(-c2c(O)[nH]c3ccc([N+](=O)[O-])cc23)[nH]c2ccc(O)cc12 | 0.5 | > 52.7 | 406 | > 57.8 µM | 394 | > 100 | 1.44 | > 100 µM |  |  |  |  |  |  | 
Cc1c(S(C)(=O)=O)c(-c2cc(F)cc(N3CCN(c4ccc(NS(=O)(=O)c5ccc(N[C@H](CCN6CCC(C(=O)OCCCP(=O)(O)O)CC6)CSc6ccccc6)c(S(=O)(=O)C(F)(F)F)c5)cc4)CC3)c2)c(-c2ccc(Cl)cc2)n1C(C)C | 3.13 | 28 | > 100000 | > 100 µM | > 100000 | > 100 | > 100 | > 100 µM |  |  |  |  |  |  | 
COc1cc(/C=C2\CCC/C(=C\c3cc(OC)c(O)c(OC)c3)C2=O)cc(OC)c1O |  | 10.8 | 2570 | 75 µM and > 100 µM | 1240 |  |  |  | 2520 | 75 µM and > 100 µM |  |  |  |  | 
COc1ccc(NC(=O)C(=O)Cc2nc3ccc([N+](=O)[O-])cc3[nH]c2=O)c(OC)c1 |  |  |  |  |  |  |  |  |  |  | > 100 | > 100 | > 100 |  | 
Nc1nc2c(c(=O)[nH]1)NC(CO)CN2 (stereo not drawn) |  |  |  |  |  |  |  |  |  |  | > 100 | > 100 | > 100 |  | 
COC(=O)C(C(=O)C(=O)Nc1ccc(C(F)(F)F)cc1[N+](=O)[O-])c1csc(-n2nc(-c3ccccc3)cc2-c2ccccc2)n1 (stereo not drawn) |  |  |  |  |  |  |  |  |  |  | > 100 |  |  |  | 
